Experimental data reported in ChEMBL document CHEMBL1201862, “PubChem BioAssay data set” (2004).
Calls of active or inactive are those of the source.

What was measured:
[1] = target: T1, Corticotropin-releasing factor receptor 2/Corticotropin-releasing factor-binding protein (Homo sapiens, UniProt P24387+Q13324); assay: Dose Response confirmation of uHTS hits for small molecule antagonists of the CRF-binding protein and CRF-R2 receptor complex.; assay type: functional; settings: read-out: IC50_Mean
T1 sequence (Q13324 whole entry): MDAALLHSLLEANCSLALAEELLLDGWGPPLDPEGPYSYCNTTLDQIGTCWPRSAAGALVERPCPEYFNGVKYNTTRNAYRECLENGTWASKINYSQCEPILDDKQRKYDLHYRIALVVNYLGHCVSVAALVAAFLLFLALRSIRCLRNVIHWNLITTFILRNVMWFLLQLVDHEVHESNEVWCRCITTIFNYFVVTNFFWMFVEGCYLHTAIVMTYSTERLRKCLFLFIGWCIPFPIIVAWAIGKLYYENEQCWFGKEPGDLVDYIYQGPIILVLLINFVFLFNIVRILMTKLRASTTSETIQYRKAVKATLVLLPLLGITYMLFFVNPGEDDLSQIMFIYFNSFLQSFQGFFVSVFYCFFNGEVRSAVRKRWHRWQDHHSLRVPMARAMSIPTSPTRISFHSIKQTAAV
T1 sequence (P24387 whole entry): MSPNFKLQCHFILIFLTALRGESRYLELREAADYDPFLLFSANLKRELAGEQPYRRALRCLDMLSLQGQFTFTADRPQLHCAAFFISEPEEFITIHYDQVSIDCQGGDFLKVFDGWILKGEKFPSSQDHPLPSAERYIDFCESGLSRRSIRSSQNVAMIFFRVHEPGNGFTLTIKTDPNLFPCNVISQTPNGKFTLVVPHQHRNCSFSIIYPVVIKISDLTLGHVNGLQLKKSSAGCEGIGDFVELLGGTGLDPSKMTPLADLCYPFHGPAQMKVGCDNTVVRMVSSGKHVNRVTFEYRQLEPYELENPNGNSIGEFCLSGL

[2] = target: T1, Corticotropin-releasing factor receptor 2/Corticotropin-releasing factor-binding protein; assay: activators of CRF receptor 2 with binding protein – uHTS hits, confirmation (AID 602473); assay type: functional; settings: read-out: EC50_Mean
Cytochrome P450 2C9 = Cytochrome P450 2C9 (Homo sapiens, UniProt P11712)
Cytochrome P450 2C9, sequence (P11712 whole entry): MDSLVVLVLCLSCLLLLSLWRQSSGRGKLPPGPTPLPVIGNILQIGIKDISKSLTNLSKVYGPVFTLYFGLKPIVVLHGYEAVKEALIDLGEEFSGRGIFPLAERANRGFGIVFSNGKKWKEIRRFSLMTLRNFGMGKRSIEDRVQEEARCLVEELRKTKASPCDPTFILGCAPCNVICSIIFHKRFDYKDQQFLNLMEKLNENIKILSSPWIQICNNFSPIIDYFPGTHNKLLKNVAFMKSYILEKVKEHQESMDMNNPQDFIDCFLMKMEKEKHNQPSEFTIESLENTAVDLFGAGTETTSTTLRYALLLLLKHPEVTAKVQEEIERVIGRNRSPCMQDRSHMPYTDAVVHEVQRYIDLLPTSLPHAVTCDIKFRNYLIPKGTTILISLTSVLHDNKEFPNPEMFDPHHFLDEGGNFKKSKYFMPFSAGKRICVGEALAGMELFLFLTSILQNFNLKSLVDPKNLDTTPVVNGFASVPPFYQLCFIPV

Cytochrome P450 1A2 = target: T2, Cytochrome P450 1A2 (Homo sapiens, UniProt P05177);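 note: PubChem cytochrome P450 panel assay, CYP1A2 panel member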
T2 sequence (P05177 whole entry): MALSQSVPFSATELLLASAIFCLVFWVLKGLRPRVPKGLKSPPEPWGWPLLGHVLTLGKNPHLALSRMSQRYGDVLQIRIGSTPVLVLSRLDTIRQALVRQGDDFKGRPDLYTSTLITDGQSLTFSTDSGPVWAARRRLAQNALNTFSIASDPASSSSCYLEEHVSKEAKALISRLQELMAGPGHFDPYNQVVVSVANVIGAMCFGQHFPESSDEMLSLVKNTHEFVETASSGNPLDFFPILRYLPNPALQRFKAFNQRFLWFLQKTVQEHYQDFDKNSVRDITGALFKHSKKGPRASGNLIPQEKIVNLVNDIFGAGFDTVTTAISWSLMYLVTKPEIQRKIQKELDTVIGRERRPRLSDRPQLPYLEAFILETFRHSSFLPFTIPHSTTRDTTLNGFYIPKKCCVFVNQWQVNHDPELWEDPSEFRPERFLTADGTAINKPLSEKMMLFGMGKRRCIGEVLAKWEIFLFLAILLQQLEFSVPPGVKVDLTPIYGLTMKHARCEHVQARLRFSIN

Cytochrome P450 3A4 = Cytochrome P450 3A4 (Homo sapiens, UniProt P08684);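 note: CYP3A4 tested as one member of a cytochrome P450 panel screen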
Cytochrome P450 3A4, sequence (P08684 whole entry): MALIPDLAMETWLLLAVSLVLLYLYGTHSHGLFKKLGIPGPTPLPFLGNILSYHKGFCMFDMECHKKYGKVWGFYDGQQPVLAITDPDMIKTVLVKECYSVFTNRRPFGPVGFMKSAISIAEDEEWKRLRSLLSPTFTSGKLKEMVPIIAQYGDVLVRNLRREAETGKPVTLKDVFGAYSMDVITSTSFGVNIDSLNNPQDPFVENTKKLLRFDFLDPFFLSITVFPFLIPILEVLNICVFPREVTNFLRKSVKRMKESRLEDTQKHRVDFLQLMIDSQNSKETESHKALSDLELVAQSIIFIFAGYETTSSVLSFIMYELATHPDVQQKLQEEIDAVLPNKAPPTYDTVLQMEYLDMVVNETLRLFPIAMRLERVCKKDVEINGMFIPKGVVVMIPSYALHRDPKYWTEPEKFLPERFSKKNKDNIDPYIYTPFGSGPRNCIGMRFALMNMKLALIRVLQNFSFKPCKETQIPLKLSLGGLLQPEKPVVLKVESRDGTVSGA

[3] = target: T3, Heat shock factor protein 1 (Mus musculus, UniProt P38532); assay: inhibition of MG132-induced HSE-luciferase signal, confirmation, cell-based, NIH3T3, luminescence, dose retest (AID 2382); assay type: functional;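 note: NIH3T3 fibroblasts with HSF1-driven luciferase reporter stressed by proteasome inhibitor MG132; luminescence from HSF1-driven luciferase expression after 8 hours of MG132 stress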
T3 sequence (P38532 whole entry): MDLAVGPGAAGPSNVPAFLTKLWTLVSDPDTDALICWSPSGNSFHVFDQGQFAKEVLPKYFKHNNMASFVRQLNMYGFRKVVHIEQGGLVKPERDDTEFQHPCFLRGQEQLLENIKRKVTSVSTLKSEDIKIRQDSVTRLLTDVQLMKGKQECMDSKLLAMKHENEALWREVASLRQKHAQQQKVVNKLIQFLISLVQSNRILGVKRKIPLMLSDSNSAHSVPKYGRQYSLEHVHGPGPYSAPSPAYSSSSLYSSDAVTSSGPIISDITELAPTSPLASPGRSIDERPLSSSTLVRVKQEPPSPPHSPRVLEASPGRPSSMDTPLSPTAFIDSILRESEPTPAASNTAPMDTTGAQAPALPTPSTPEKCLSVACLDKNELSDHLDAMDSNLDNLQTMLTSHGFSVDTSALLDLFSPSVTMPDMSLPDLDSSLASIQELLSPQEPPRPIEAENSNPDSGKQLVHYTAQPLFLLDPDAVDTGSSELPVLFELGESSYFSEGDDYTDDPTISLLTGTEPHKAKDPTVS

cells = assay type: functional
[4] = target: T4, RNA-binding protein pos-1 (Caenorhabditis elegans, UniProt G5EF15); assay: inhibitors of POS-1/mex-3 RNA binding, dose response, biochemical, fluorescence polarization (AID 1964);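 note: purified POS-1 fused to maltose binding protein made in E. coli; potency of compounds blocking POS-1 binding to fluorescent RNA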
T4 sequence (G5EF15 whole entry): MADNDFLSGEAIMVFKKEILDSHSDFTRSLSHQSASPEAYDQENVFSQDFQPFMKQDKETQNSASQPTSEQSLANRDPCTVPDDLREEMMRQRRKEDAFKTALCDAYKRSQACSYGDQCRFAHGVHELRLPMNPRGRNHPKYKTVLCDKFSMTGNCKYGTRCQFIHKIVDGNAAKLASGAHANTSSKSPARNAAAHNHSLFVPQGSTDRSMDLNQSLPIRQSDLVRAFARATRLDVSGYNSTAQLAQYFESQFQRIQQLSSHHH

[5] = target: T5, Zinc finger protein mex-5 (Caenorhabditis elegans, UniProt Q9XUB2); assay: MEX-5/TCR-2 RNA interaction inhibitors, dose response, biochemical, C. elegans, fluorescence polarization (AID 1960)
T5 sequence (Q9XUB2 whole entry): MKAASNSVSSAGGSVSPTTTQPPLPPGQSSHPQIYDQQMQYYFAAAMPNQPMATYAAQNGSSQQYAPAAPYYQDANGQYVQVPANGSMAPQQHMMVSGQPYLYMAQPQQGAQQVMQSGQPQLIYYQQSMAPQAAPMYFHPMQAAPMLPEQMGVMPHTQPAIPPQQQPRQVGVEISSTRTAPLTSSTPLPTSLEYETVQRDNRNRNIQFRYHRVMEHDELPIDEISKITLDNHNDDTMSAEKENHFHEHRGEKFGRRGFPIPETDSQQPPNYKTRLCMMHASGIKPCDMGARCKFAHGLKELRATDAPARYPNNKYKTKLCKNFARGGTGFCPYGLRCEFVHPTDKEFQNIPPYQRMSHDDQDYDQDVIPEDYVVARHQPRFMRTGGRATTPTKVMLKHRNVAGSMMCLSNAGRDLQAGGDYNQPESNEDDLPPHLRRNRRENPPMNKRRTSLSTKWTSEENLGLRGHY

[6] = inhibitors of firefly luciferase expression or activity, dose response, H4 neuroglioma cells, luminescence (AID 1990); assay type: functional, cell-based
[7] = Luminescence Cell-Based Dose Response HTS to Identify Inhibitors of 5'UTR Stem-Loop Driven Prion Protein mRNA Translation in H4 Neuroglioblastoma Cells. [Related pubchem assays: 1827 (Project Summary), 1813 (Primary HTS)]; assay type: functional
[8] = inhibitors of SNCA 5'UTR-driven reporter translation, confirmation, H4 neuroglioma cells, luminescence (AID 1988); assay type: functional, cell-based
Cytochrome P450 2C19 = Cytochrome P450 2C19 (Homo sapiens, UniProt P33261); assay: Cytochrome panel assay with activity outcomes. Panel member name: p450-cyp2c19 Compounds with AC50 equal or less than 10 uM are considered active; assay type: functional; settings: read-out: AC50
Cytochrome P450 2C19, sequence (P33261 whole entry): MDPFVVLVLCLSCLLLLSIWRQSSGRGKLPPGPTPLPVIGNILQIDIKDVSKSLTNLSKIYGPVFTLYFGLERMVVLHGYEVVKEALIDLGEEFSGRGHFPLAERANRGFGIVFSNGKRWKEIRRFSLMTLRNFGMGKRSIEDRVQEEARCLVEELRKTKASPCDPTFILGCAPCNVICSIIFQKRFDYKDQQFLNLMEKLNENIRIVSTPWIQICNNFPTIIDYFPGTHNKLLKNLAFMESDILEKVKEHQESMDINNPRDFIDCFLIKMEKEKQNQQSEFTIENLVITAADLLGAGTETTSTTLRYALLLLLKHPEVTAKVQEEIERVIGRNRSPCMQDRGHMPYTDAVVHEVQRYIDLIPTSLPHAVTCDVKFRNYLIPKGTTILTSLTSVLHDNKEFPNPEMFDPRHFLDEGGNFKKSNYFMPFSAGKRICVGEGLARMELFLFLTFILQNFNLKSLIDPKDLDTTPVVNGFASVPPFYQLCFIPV

## CC(C)(C)n1nc2c(c1NC(=O)Cc1ccccc1)CS(=O)(=O)C2
[1]
  IC50: > 47.1 µM (inactive)
[2]
  EC50: > 53 µM (inactive)

## COc1ccc(NC(=O)c2ccc(C(=O)c3cc(OC)ccc3OC)cc2)cc1
Cytochrome P450 2C9
  AC50: 22.4 µM (inconclusive)

## CC(C)NC(=O)N1CCCC2(CCN(C(=O)Oc3ccccc3)CC2)C1
Cytochrome P450 1A2
  AC50: 12.6 µM (inconclusive)
Cytochrome P450 3A4
  AC50: 25.1 µM (inconclusive)
Cytochrome P450 2C9
  AC50: 12.6 µM (inconclusive)

## Cn1cc(C(=O)c2ccccc2)c2ccccc21
[1]
  IC50: > 47.1 µM (inactive)
[2]
  EC50: > 53 µM (inactive)

## C=CCNC(=S)NNC(=O)c1cc(-c2cccnc2)nc2ccccc12
[3]
  EC50: > 195 µM (not active)

## COC(=O)C1=C(N)OC2=C(C(=O)CC(C)(C)C2)C1c1cccnc1 (stereo not given)
cells
  IC50: > 50 µM (active)

## CCN(CC)CCN/C=C1\C(=O)NC(=O)N(CCc2ccccc2)C1=O
[4]
  EC50: > 300 µM (not active)
[5]
  EC50: > 300 µM (not active)

## Cc1ccc(Sc2c(C=O)c3ccccc3n2C)cc1
[1]
  IC50: > 47.1 µM (inactive)
[2]
  EC50: > 53 µM (inactive)

## CCO/C(C)=N/n1c2nc3ccccc3nc2c2c(=O)n(CC(C)C)c(C)nc21
Cytochrome P450 2C9
  AC50: 12.6 µM (inconclusive)

## O=C1c2ccc3c4c(ccc(c24)C(=O)N1c1ccc2ccccc2c1)CC3
[6]
  EC50: 11.6 µM (active)
[7]
  EC50: 36.6 µM (active)
[8]
  EC50: 119 µM (active)
Cytochrome P450 2C19
  AC50: 2.24 µM (inconclusive)
Cytochrome P450 2C9
  AC50: 3.98 µM (inconclusive)

## Cc1ccc(NC(=O)/C(=C\c2cccnc2)NC(=O)c2ccco2)cc1
Cytochrome P450 2C19
  AC50: 35.5 µM (inconclusive)
Cytochrome P450 2C9
  AC50: 20 µM (inconclusive)

## O=C(NNc1nc2ccccc2s1)Nc1ccccc1
[3]
  EC50: > 195 µM (not active)

## Cc1cccc2cc(C#N)c(N3CCN(C)CC3)nc12
[1]
  IC50: > 47.1 µM (inactive)
[2]
  EC50: > 53 µM (inactive)

## CCOCCOC(=O)c1ccc(NC(=O)C2COc3ccccc3O2)cc1 (stereo not given)
cells
  IC50: 15.2 µM (active)

## Cn1c(=O)c2nc(N/N=C(/C#N)C(N)=O)[nH]c2n(C)c1=O
[4]
  EC50: > 300 µM (not active)
[5]
  EC50: 52.4 µM (active)

## Cc1oc(/N=C/c2ccc(O)cc2O)c(C#N)c1C
[4]
  EC50: > 300 µM (not active)
[5]
  EC50: > 300 µM (not active)
